According to patent US20100069341A1, “TETRAHYDRO-PYRANOPYRAZOLE CANNABINOID MODULATORS” (priority 2005, published 2010):
pIC50: −log10 of the molar value. Read-outs that look alike come from different tables or passages of the source.

Assays:
Cannabinoid CB1 Receptor = molecular target: T1, Cannabinoid CB1 Receptor (Homo sapiens, UniProt P21554); experiment: Binding assay, cannabinoid CB1 receptor ([3H]-CP-55,940 displacement, SK-N-MC cell membranes); conditions: for inhibition at 0.2 µM: read-out: Cannabinoid CB1 Receptor Binding, percent inhibition
T1 construct: expressed in transfected cells; semi-purified membrane pellet
T1 sequence (P21554 whole entry): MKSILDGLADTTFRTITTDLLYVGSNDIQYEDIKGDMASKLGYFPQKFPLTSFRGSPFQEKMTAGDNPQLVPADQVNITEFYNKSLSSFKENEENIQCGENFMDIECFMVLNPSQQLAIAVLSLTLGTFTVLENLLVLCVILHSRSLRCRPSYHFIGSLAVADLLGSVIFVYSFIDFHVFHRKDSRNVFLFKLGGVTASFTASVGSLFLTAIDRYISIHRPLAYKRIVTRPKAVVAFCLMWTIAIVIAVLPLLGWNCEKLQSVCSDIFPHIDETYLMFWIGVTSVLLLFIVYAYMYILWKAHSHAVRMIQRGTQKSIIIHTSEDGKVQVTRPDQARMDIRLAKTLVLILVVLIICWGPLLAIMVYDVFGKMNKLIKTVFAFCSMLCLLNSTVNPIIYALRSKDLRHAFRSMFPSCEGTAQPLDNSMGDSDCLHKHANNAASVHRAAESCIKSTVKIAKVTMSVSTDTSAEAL
Procedure: (§1) Binding Assay for CB1 or CB2 Agonists or Inverse Agonists
(§2) The human CB1 and CB2 receptors were stably expressed in SK-N-MC cells transfected with pcDNA3 CB-1 (human) or pcDNA3 CB-2 (human). The cells were grown in T-180 cell culture flasks under standard cell culture conditions at 37° C. in a 5% CO2 atmosphere. The cells were harvested by trysinization and homogenized in a homogenization buffer (10 mM Tris, 0.2 mM MgCl2, 5 mM KCl, with protease inhibitors aprotinin, leupeptin, pepstatin A and bacitracin) and centrifuged (2000 g). The supernatant was then centrifuged in 2M sucrose (31,300 g) to produce a semi-purified membrane pellet. The pellet was resuspended in homogenization and store at −80° C.
On the day of the assay, the pellet was thawed on ice and diluted in assay buffer (50 mM Tris-HCl, 5 mM MgCl2, 2.5 mM EDTA, 0.5 mg/mL fatty acid free bovine serum albumin, pH 7.5). […] The plate was covered and incubated for 90 minutes at 30° C. The contents were then aspirated onto a Packard Unifilter GF/C filter bottom plate prewet with 0.5% polyethyleneimine. The wells of the polypropylene plate were rinsed and aspirated seven times with a 0.9% saline-0.5% Tween 20 solution. The Unifilter plate was dried, a scintillation cocktail was added to each well and the counts representing binding were quantitated in a TopCount scintillation counter.
(§3) For compounds tested, an IC50 binding value was obtained from percent inhibition studies in which various test concentrations were used. The binding value (in μM) was calculated by linear regression.

Cannabinoid CB2 Receptor = molecular target: T2, Cannabinoid CB2 Receptor (Homo sapiens, UniProt P34972); experiment: Binding assay, cannabinoid CB2 receptor ([3H]-CP-55,940 displacement, SK-N-MC cell membranes); conditions: test concentration of 0.2 μM; human CB2 in SK-N-MC membranes; read-out: Cannabinoid CB2 Receptor Binding, percent inhibition
T2 construct: expressed in transfected cells; semi-purified membrane pellet
T2 sequence (P34972 whole entry): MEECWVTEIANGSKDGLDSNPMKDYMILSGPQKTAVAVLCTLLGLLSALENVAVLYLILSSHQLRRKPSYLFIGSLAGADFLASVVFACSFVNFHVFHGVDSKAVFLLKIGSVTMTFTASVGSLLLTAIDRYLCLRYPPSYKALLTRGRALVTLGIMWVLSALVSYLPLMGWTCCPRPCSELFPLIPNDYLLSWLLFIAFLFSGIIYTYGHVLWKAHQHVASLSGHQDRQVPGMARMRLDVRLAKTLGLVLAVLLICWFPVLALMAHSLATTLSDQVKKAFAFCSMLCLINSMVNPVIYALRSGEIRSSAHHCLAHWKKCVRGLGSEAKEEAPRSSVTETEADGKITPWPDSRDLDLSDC
Procedure: as §1, §2
On the day of the assay, the pellet was thawed on ice and diluted in assay buffer (50 mM Tris-HCl, 5 mM MgCl2, 2.5 mM EDTA, 0.5 mg/mL fatty acid free bovine serum albumin, pH 7.5). The diluted membrane was added with buffer, test compound or standard and the radioligand [H]^3+-CP-55,940 (0.2 nM) to the wells of a 96-well polypropylene plate. Non-specific binding was measured in wells containing 10 uM WIN 55,212. The plate was covered and incubated for 90 minutes at 30° C. The contents were then aspirated onto a Packard Unifilter GF/C filter bottom plate prewet with 0.5% polyethyleneimine. The wells of the polypropylene plate were rinsed and aspirated seven times with a 0.9% saline-0.5% Tween 20 solution. The Unifilter plate was dried, a scintillation cocktail was added to each well and the counts representing binding were quantitated in a TopCount scintillation counter.
as §3, with “regression. For compounds without an IC50 binding value, the percent inhibition (in %) was obtained at a test concentration of 0.2 μM.” for “regression.”

[1] = test concentration of 0.2 μM, human CB1 in SK-N-MC membranes

Structure (SMILES)	inhibition at 0.2 µM (Cannabinoid CB1 Receptor; [1])	inhibition at 0.2 µM (Cannabinoid CB2 Receptor)	pIC50 (Cannabinoid CB1 Receptor)	inhibition at 0.2 µM (Cannabinoid CB1 Receptor)
O=C(c1nn(-c2ccc(Cl)cc2Cl)c2c1COC/C2=C\c1ccc(F)cc1)N1CCCC1 [Cpd 10, (7Z)-[1-(2,4-dichloro-phenyl)-7-(4-fluoro-benzylidene)-1,4,6,7-tetrahydro-pyrano[4,3-c]pyrazol-3-yl]-pyrrolidin-1-yl-methanone]	33%	14%		
O=C(NN1CC2CCCC2C1)c1nn(-c2ccc(Cl)cc2)c2c1COC/C2=C\c1ccc(F)cc1 (centres unmarked) [Cpd 15, (7Z)-1-(4-chloro-phenyl)-7-(4-fluoro-benzylidene)-1,4,6,7-tetrahydro-pyrano[4,3-c]pyrazole-3-carboxylic acid (hexahydro-cyclopenta[c]pyrrol-2-yl)-amide]	81%	18%	7.10	
C[C@@H](NC(=O)c1nn(-c2ccc(Cl)cc2Cl)c2c1COC/C2=C\c1ccc(Cl)o1)c1ccccc1 [Cpd 69, (7Z)-7-(5-chloro-furan-2-ylmethylene)-1-(2,4-dichloro-phenyl)-1,4,6,7-tetrahydro-pyrano[4,3-c]pyrazole-3-carboxylic acid [(R)-1-phenyl-ethyl]-amide]	73%	15%	7.30	
C[C@H](NC(=O)c1nn(-c2ccc(Cl)cc2Cl)c2c1COC/C2=C\c1ccc(Cl)s1)c1ccccc1 [Cpd 51, (7Z)-7-(5-chloro-thiophen-2-ylmethylene)-1-(2,4-dichloro-phenyl)-1,4,6,7-tetrahydro-pyrano[4,3-c]pyrazole-3-carboxylic acid [(S)-1-phenyl-ethyl]-amide]	48%	15%		
C[C@@H](NC(=O)c1nn(-c2ccc(Cl)cc2Cl)c2c1COC/C2=C\c1ccc(F)cc1)c1ccccc1 [Cpd 2, (7 Z)-1-(2,4-dichloro-phenyl)-7-(4-fluoro-benzylidene)-1,4,6,7-tetrahydro-pyrano[4,3-c]pyrazole-3-carboxylic acid [(1R)-1-phenyl-ethyl]-amide]	87%	23%	7.89	
O=C(c1nn(-c2ccc(Cl)cc2Cl)c2c1COC/C2=C\c1ccc(F)cc1)N1CCC[C@H]1CO [Cpd 21, (7Z)-[1-(2,4-dichloro-phenyl)-7-(4-fluoro-benzylidene)-1,4,6,7-tetrahydro-pyrano[4,3-c]pyrazol-3-yl]-[(2S)-2-hydroxymethyl-pyrrolidin-1-yl]-methanone]	59%	15%		
O=C(NN1CCCCC1)c1nn(-c2ccc(Cl)cc2Cl)c2c1COC/C2=C\c1ccc(F)cc1 [Cpd 7, (7Z)-1-(2,4-dichloro-phenyl)-7-(4-fluoro-benzylidene)-1,4,6,7-tetrahydro-pyrano[4,3-c]pyrazole-3-carboxylic acid piperidin-1-ylamide]	79%	8%	7.40	
COC[C@@H]1CCCN1NC(=O)c1nn(-c2ccc(Cl)cc2Cl)c2c1COC/C2=C\c1ccc(Cl)s1 [Cpd 73, (7Z)-7-(5-chloro-thiophen-2-ylmethylene)-1-(2,4-dichloro-phenyl)-1,4,6,7-tetrahydro-pyrano[4,3-c]pyrazole-3-carboxylic acid [(2S)-2-methoxymethyl-pyrrolidin-1-yl]-amide]	57%	11%		
C[C@@H](NC(=O)c1nn(-c2ccc(Cl)cc2Cl)c2c1COC/C2=C\c1ccc(Cl)s1)c1ccccc1 [Cpd 49, (7Z)-7-(5-chloro-thiophen-2-ylmethylene)-1-(2,4-dichloro-phenyl)-1,4,6,7-tetrahydro-pyrano[4,3-c]pyrazole-3-carboxylic acid [(R)-1-phenyl-ethyl]-amide]	84%	10%	7.70	
C[C@@H](NC(=O)c1nn(-c2ccc(Cl)cc2)c2c1COC/C2=C\c1ccc(F)cc1)c1ccccc1 [Cpd 12, (7Z)-1-(4-chloro-phenyl)-7-(4-fluoro-benzylidene)-1,4,6,7-tetrahydro-pyrano[4,3-c]pyrazole-3-carboxylic acid [(1R)-1-phenyl-ethyl]-amide]	81%	5%	7.30	
CC(NC(=O)c1nn(-c2ccc(Cl)cc2Cl)c2c1COC/C2=C\c1ccc(Cl)s1)c1ccccn1 (centres unmarked) [Cpd 60, (7Z)-7-(5-chloro-thiophen-2-ylmethylene)-1-(2,4-dichloro-phenyl)-1,4,6,7-tetrahydro-pyrano[4,3-c]pyrazole-3-carboxylic acid (1-pyridin-2-yl-ethyl)-amide]	58%	7%		
O=C(NN1CC2CCCC2C1)c1nn(-c2ccc(Cl)cc2Cl)c2c1COC/C2=C\c1cccs1 (centres unmarked) [Cpd 38, (7Z)-1-(2,4-dichloro-phenyl)-7-thiophen-2-ylmethylene-1,4,6,7-tetrahydro-pyrano[4,3-c]pyrazole-3-carboxylic acid (hexahydro-cyclopenta[c]pyrrol-2-yl)-amide]	79%	16%	7.52	
C[C@@H](NC(=O)c1nn(-c2ccc(Cl)cc2Cl)c2c1COC/C2=C\c1ccsc1)C1CCCCC1 [Cpd 39, (7Z)-1-(2,4-dichloro-phenyl)-7-thiophen-3-ylmethylene-1,4,6,7-tetrahydro-pyrano[4,3-c]pyrazole-3-carboxylic acid [(R)-1-cyclohexyl-ethyl]-amide]		13%	7.70	84%
CC(NC(=O)c1nn(-c2ccc(Cl)cc2Cl)c2c1COC/C2=C\c1ccc(Cl)o1)c1ccccn1 (centres unmarked) [Cpd 67, (7Z)-7-(5-chloro-furan-2-ylmethylene)-1-(2,4-dichloro-phenyl)-1,4,6,7-tetrahydro-pyrano[4,3-c]pyrazole-3-carboxylic acid (1-pyridin-2-yl-ethyl)-amide]	40%	7%		
O=C(NN1CCCC1)c1nn(-c2ccc(Cl)cc2Cl)c2c1COC/C2=C\c1cccs1 [Cpd 34, (7Z)-1-(2,4-dichloro-phenyl)-7-thiophen-2-ylmethylene-1,4,6,7-tetrahydro-pyrano[4,3-c]pyrazole-3-carboxylic acid pyrrolidin-1-ylamide]	54%	7%		
CC1CCCC(C)N1NC(=O)c1nn(-c2ccc(Cl)cc2Cl)c2c1COC/C2=C\c1ccc(Cl)s1 (centres unmarked) [Cpd 55, (7Z)-7-(5-chloro-thiophen-2-ylmethylene)-1-(2,4-dichloro-phenyl)-1,4,6,7-tetrahydro-pyrano[4,3-c]pyrazole-3-carboxylic acid (2,6-dimethyl-piperidin-1-yl)-amide]	65%	11%		
O=C(N[C@H](CO)c1ccccc1)c1nn(-c2ccc(Cl)cc2Cl)c2c1COC/C2=C\c1ccc(Cl)s1 [Cpd 58, (7Z)-7-(5-chloro-thiophen-2-ylmethylene)-1-(2,4-dichloro-phenyl)-1,4,6,7-tetrahydro-pyrano[4,3-c]pyrazole-3-carboxylic acid [(S)-2-hydroxy-1-phenyl-ethyl]-amide]	59%	0%		
O=C(NCc1ccccn1)c1nn(-c2ccc(Cl)cc2Cl)c2c1COC/C2=C\c1ccc(F)cc1 [Cpd 6, (7Z)-1-(2,4-dichloro-phenyl)-7-(4-fluoro-benzylidene)-1,4,6,7-tetrahydro-pyrano[4,3-c]pyrazole-3-carboxylic acid (pyridin-2-ylmethyl)-amide]	37%	25%		
